Values of other authors, collected in paper PMC9825171 (Nucleic Acids Research, 2022).

System: interactions of both NICD and SHARP with RBPJ
Settings: cellular assays; ref [63]

Cn1nccc1-c1ccc(C(N)=O)c(Oc2ccccc2F)c1 [RIN1]
effect on RBPJ-coregulator interactions, in words: block the interactions of both NICD and SHARP with RBPJ
